Laboratory results from patent publication US7875602B2 (priority 2005, dated 2011).
Structures can show the parent of a compound that is named as a salt.

Legend:
[1] = tested on: PC-3 human prostate cancer cells; assay: In vitro chemoradiosensitization, cell colony count; assay type: cell-based; details: for radiosensitivity of the cancer cell after prior exposure: 5 nM, 2 h exposure before X-rays; for Survival (%): Radiation + compound at 5 nM, 2 h drug exposure
Method: (§1) Chemoradiosensitizing effects of compound 13, compound 10, and compound 20 on human cancer cells were evaluated at a dose of 5 nM. PC-3 human prostate cancer cells were plated on petri dishes in triplicates were allowed to attach. After irradiation, cells were rinsed with HBSS (Hank's balanced salt solution), and covered with fresh media. Cells were cultured for 8-9 days in a 37° C. incubator. The resulting cell colonies were stained and counted. […] Other compounds of this invention can similarly be evaluated in accordance with this method.

[2] = tested on: MTG-B mouse mammary adenocarcinoma tumors; assay: In vivo chemoradiosensitization in tumor-bearing mice; set-up: species or system C3H/HeN mice; details: single i.p. injection at MTD
Method: To determine whether the pronounced effects of compound 13 in tissue culture could be duplicated in solid tumors, in vivo chemoradiosensitization studies were performed on C3H/HeN mice bearing MTG-B mouse mammary adenocarcinoma tumors. Prior to treatment, the tumor grew exponentially following implantation into the flanks of the mice and reached a diameter of 8 mm (268.08 cu. mm) by day 7 to 10. The mice were injected i.p. with compound 13 at MTD using a single injection and then irradiated with a radiation dose of 22 Gy 24 h after the injection. Control groups of mice bearing 8 mm diameter tumors were treated with vehicle alone, or radiation alone, or drug alone. After treatment, tumor sizes were measured by caliper every day. Daily measurement of the tumor diameters (d1, d2) in two orthogonal directions were used to calculate the tumor volume (tumor volume=π/6{(d1+d2)/2}^3) using the approximation that the tumors were spherical (results shown in FIG. 1). The values of time (days) required to grow the tumor to twice their initial size after various treatments were calculated as tumor doubling time (TDT) (±SE) for evaluating the treatment effects. Survival times and curative effects after treatment were also be observed and recorded. Other compounds of this invention can similarly be evaluated in accordance with this method.

[3] = tested on: DMS-14 small lung cancer cells; assay: In vitro chemoradiosensitization, cell colony count; assay type: cell-based, human; details: for Survival (%): Radiation + compound at 5 nM, 2 h drug exposure
Method: as §1, with “13” for “13, compound 10, and compound 20”, “DMS-14 small lung” for “PC-3 human prostate”

[4] = Acute toxicity, MTD40 (maximum tolerated dose at day 40); assay type: in vivo, C3H/HeN mice; details: i.p. injection, mice checked daily for 45 days; values only in FIG. 3
Method: Drugs were dissolved in cremophor:alcohol (1:1) and diluted in saline to a 5% cremophor, 5% alcohol, 90% saline for i.p. injection.
Acute toxicities of a compound of this invention, compound 13, topotecan, CPT and cisplatin were evaluated on C3H/HeN mice (female, 6-8 week old, body weight 18-20 g). The MTD40 (maximum tolerated dose at day 40) values were determined. In the consecutive type studies, 6 mice were dosed at moderate doses of 10, 70, or 106.98, or 141.47, or 187.1 mg/kg. If no severe and irreversible toxicity (euthanasia is required) occurred at these doses, additional 6 animals were initiated at a dose which is 1.3225-1.5283 times higher than the previous non-toxic doses. Sequential dosages (261.94, or 366.72, or 500 mg/kg) were increased until severe and irreversible toxicity (whereby euthanasia is required) occurs. […] The result of this exercise was two dosages, one apparently nonlethal and the other lethal if severe and irreversible toxicity occurred and euthanasia was required. Six mice were dosed at each dosage. If no severe and irreversible toxicity occurred at the lower dosage and at least one with severe and irreversible toxicity at the higher dose, then the lower dose was considered to the MTD. […] Drug toxicity was evaluated on mice, checked daily for 45 days. […] Other compounds of this invention can similarly be evaluated in accordance with this method.

[5] = tested on: PC-3 human prostate cancer cells; assay: Chemotherapeutic activity, cell colony count after 24 hr drug exposure; assay type: cell-based; details: 24 hr exposure
Method: (§2) Chemotherapeutic effects of compound 13 on human prostate cancer cells (PC-3 and DU-145) were evaluated at dose concentrations between 0 and 10 nM. Cells plated on Petri dishes in triplicates were allowed to attach, then cells were subjected to 24 hr drug exposure at 37° C. The cells were then rinsed with HBSS ((Hank's balanced salt solution) and covered with fresh media. Cells were cultured for 8-9 days in a 37° C. incubator. The resulting cell colonies were stained and counted. Results are presented in Table 4.

[6] = tested on: DU-145 human prostate cancer cells; assay: as above; assay type: cell-based; details: 24 hr exposure
Method: as §2

[7] = tested on: PC-3: human prostate cancer cell line; assay type: cell-based; details: for IC50: Homo sapiens, 72 h, read-out: IC50 (nM) PC-3
[8] = compound plus radiation, 22 Gy 24 h after the injection

Row | Structure (SMILES) | melting point | radiosensitivity of the cancer cell after prior exposure [1] | Survival (%) ([1]; X-rays 0 Gy) | Survival (%) ([1]; X-rays 1 Gy) | Survival (%) ([1]; X-rays 2 Gy) | Survival (%) ([1]; X-rays 4 Gy) | IC50 [7] [nM] | other results
1 | CC[C@@]1(OC(=O)[C@@H](C)ON=C2c3cc([N+](=O)[O-])cc([N+](=O)[O-])c3-c3c2cc([N+](=O)[O-])cc3[N+](=O)[O-])C(=O)OCc2c1cc1n(c2=O)Cc2cc3c(CN(C)C)c(O)ccc3nc2-1 (as salt: hydrochloride) [Compound 10] | 210 to 213 °C (dec.) |  |  |  |  |  |  | 
2 | CC[C@@]1(OC(=O)CON=C2c3cc([N+](=O)[O-])cc([N+](=O)[O-])c3-c3c2cc([N+](=O)[O-])cc3[N+](=O)[O-])C(=O)OCc2c1cc1n(c2=O)Cc2cc3c(CN(C)C)c(O)ccc3nc2-1 (as salt: hydrochloride) [Compound 16] | 210 to 215 °C (dec.) |  |  |  |  |  |  | 
3 | CC[C@@]1(OC(=O)[C@@H](C)ON=C2c3cc([N+](=O)[O-])cc([N+](=O)[O-])c3-c3c2cc([N+](=O)[O-])cc3[N+](=O)[O-])C(=O)OCc2c1cc1n(c2=O)Cc2cc3c(CN(C)C)c(O)ccc3nc2-1 [Compound 10] |  | significantly increased the radiosensitivity | 100 | 90 | 66 | 21 |  | 
4 | CC[C@@]1(OC(=O)[C@@H](C)ON=C2c3cc([N+](=O)[O-])cc([N+](=O)[O-])c3-c3c2cc([N+](=O)[O-])cc3[N+](=O)[O-])C(=O)OCc2c1cc1n(c2=O)Cc2cc3ccccc3nc2-1 [Compound 13] |  | significantly increased the radiosensitivity | 100 | 83 | 60 | 22 | 5 | Survival ([2]; compound alone): 24 days; TDT (days), tumor doubling time ([2]; compound alone): 12 days; Survival [2, 8]: 90 days; TDT (days), tumor doubling time [2, 8]: 33 days; radiosensitivity of the cancer cell after prior exposure ([3]; 5 nM, 2 h exposure before X-rays): significantly increased the radiosensitivity; Survival (%) ([3]; X-rays 0 Gy): 100%; Survival (%) ([3]; X-rays 2 Gy): 44%; Survival (%) ([3]; X-rays 4 Gy): 23%; Survival (%) ([3]; X-rays 8 Gy): 3%; toxicity compared with camptothecin and topotecan [4]: Decreased Toxicity; PC-3 Cells % Survival ([5]; drug conc. 1 nM): 98%; PC-3 Cells % Survival ([5]; drug conc. 5 nM): 52%; PC-3 Cells % Survival ([5]; drug conc. 10 nM): 10%; DU-145 Cells % Survival ([6]; drug conc. 1 nM): 82%; DU-145 Cells % Survival ([6]; drug conc. 5 nM): 43%; DU-145 Cells % Survival ([6]; drug conc. 10 nM): 5%
5 | CC[C@@]1(OC(=O)[C@H](C)ON=C2c3cc([N+](=O)[O-])cc([N+](=O)[O-])c3-c3c2cc([N+](=O)[O-])cc3[N+](=O)[O-])C(=O)OCc2c1cc1n(c2=O)Cc2cc3ccccc3nc2-1 [Compound 17] |  |  |  |  |  |  | 6 | 
6 | CC[C@@]1(OC(=O)[C@@H](C)ON=C2c3cc([N+](=O)[O-])cc([N+](=O)[O-])c3-c3c2cc([N+](=O)[O-])cc3[N+](=O)[O-])C(=O)OCc2c1cc1n(c2=O)Cc2cc3cc(O)ccc3nc2-1 [Compound 20] | 210 to 215 °C (dec.) | significantly increased the radiosensitivity | 100 | 82 | 65 | 22 | 6 | 
7 | CC[C@@]1(O)C(=O)OCc2c1cc1n(c2=O)Cc2cc3c(CN(C)C)c(O)ccc3nc2-1 [Topotecan, (20S)-9-dimethylaminomethyl-10-hydroxy CPT, reference compound] |  |  |  |  |  |  |  | IC50 (nM) PC-3 ([7]; 72 hours drug incubation, 50% inhibition of colony formation): no effect
